# From paper PMC7903134, “Human glucocerebrosidase mediates formation of xylosyl-cholesterol by β-xylosidase and transxylosidase reactions” (Journal of Lipid Research, 2021)
# Tests used:
# GBA3 = molecular target: T1, GBA3 (Homo sapiens, UniProt Q9H227); assay: hydrolysis and transxylosylation in lysates of GBA3-overexpressing HEK293 cells; format: cell-based
# T1 construct: GBA3 overexpressed in HEK293 cells, lysate
# T1 sequence (Q9H227 1-469): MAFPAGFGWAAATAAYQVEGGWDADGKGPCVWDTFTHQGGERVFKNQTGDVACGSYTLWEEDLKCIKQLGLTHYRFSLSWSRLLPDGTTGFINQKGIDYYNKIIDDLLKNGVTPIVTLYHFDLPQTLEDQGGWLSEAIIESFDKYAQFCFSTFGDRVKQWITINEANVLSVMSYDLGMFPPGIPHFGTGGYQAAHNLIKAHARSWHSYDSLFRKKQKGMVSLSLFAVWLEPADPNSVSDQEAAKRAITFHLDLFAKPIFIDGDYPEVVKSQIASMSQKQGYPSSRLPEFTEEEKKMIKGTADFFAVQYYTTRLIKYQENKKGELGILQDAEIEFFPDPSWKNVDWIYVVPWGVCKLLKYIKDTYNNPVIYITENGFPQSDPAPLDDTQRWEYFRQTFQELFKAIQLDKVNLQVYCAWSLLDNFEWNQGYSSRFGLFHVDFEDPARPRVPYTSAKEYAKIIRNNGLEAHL
# [1] = molecular target: T2, glucosylceramide synthase (GCS) (Homo sapiens, UniProt Q16739); assay: XylCer formation in lysates of HeLa, GCS KO and GCS-reexpressing cells, LC-MS/MS; format: cell-based
# T2 construct: gene UGCG; GCS overexpressed in HeLa GCS KO cells, lysate
# T2 sequence (Q16739 1-394): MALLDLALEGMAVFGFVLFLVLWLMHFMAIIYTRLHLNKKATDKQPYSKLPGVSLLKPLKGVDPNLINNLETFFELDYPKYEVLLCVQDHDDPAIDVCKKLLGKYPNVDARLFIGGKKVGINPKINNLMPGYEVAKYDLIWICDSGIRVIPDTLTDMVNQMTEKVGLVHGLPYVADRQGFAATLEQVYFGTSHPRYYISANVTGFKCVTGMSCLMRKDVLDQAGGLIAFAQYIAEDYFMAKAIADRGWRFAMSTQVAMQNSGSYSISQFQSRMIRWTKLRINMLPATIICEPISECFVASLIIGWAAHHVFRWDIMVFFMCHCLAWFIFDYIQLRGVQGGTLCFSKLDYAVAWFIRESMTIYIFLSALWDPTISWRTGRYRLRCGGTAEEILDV
# From the text: formation in lysates of HeLa, GCS KO and GCS-reexpressing cells, LC-MS/MS on glucosylceramide synthase (GCS) | Expression of GCS in the GCS KO cells reinstalled their ability to produce […]
# [2] = molecular target: T3, glucocerebrosidase (GBA), recombinant human (rhGBA, Cerezyme) (Homo sapiens, UniProt P04062); assay: transxylosylation/transglucosylation acceptor, LC-MS/MS of products; format: biochemical
# T3 construct: gene GBA1
# T3 sequence (P04062 40-536): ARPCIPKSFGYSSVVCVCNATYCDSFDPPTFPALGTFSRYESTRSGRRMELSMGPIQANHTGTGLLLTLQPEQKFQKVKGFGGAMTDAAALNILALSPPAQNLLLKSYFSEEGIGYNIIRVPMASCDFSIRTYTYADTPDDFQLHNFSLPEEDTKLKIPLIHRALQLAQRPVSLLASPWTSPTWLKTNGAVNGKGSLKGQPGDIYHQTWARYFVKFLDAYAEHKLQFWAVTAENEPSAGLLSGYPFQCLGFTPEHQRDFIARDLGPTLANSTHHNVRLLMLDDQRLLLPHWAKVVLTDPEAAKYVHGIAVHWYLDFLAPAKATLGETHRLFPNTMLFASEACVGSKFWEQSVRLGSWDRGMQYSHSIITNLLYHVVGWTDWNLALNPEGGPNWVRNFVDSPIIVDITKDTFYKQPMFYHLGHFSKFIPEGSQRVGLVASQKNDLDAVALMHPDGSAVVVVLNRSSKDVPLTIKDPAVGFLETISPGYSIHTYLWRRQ
# glucocerebrosidase (GBA) = molecular target: T4, glucocerebrosidase (GBA) (Mus musculus, UniProt P17439); assay: irreversible GBA inhibition in RAW264.[…] cells ([…]); xylosylated cholesterol by LC-MS/MS; format: cell-based
# T4 construct: gene Gba1; endogenous GBA in RAW264.7 cells
# T4 sequence (P17439 20-515): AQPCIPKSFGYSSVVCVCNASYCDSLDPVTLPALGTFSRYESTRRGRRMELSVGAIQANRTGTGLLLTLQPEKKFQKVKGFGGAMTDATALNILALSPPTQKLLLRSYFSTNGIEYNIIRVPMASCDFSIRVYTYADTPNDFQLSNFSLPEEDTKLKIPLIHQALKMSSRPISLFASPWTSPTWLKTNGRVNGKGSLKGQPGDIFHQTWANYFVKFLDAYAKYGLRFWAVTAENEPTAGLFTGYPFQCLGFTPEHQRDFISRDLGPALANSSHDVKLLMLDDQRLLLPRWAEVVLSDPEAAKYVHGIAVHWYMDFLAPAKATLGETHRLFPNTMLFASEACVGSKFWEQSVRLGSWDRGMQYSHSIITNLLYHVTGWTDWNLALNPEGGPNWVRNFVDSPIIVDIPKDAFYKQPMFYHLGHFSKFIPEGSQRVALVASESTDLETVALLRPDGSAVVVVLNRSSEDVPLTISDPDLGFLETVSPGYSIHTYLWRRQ
# [3] = molecular target: T3, glucocerebrosidase (GBA), recombinant human (rhGBA, Cerezyme); assay: fluorogenic 4-MU-β-Xyl ([…]) and 4-MU-β-Glc ([…]) hydrolysis after […] min preincubation; format: biochemical
compound,measurement,setting,value
Cc1cc(=O)oc2cc(O[C@@H]3OC[C@@H](O)[C@H](O)[C@H]3O)ccc12 [4-methylumbelliferyl β-D-xyloside],hydrolysis and transxylosylation in lysates of GBA3-overexpressing HEK293 cells,GBA3,"GBA3, albeit less prominent than GBA, was found to be able to hydrolyze 4-MU-β-Xyl"
O=c1ccn([C@@H]2O[C@H](COP(=O)(O)OP(=O)(O)O[C@H]3OC[C@@H](O)[C@H](O)[C@H]3O)[C@@H](O)[C@H]2O)c(=O)[nH]1 [UDP-Xyl],"XylCer formation in lysates of HeLa, GCS KO and GCS-reexpressing cells, LC-MS/MS",[1],Expression of GCS in the GCS KO cells reinstalled their ability to produce XylCer
CC(C)CCC[C@@H](C)[C@H]1CC[C@H]2[C@@H]3CC=C4C[C@@H](O)CC[C@]4(C)[C@H]3CC[C@]12C [cholesterol],"transxylosylation/transglucosylation acceptor, LC-MS/MS of products",[2],we used natural cholesterol as the acceptor and 4-MU-β-Xyl as the donor
"O[C@H]1[C@H](O)[C@@H](O)[C@@H]2O[C@@H]2[C@@H]1O [conduritol B-epoxide, L-1,2-anhydro-myo-inositol]",irreversible GBA inhibition in RAW264.7 cells (300 μM); xylosylated cholesterol,glucocerebrosidase (GBA),formation was prohibited by prior inhibition of GBA with CBE
OC[C@@H]1[C@@H](O)[C@H](O)[C@@H](O)[C@@H]2O[C@H]12 [cyclophellitol],IC50,[3],61 nM
